Anti-gonadotropic activity data for seven compounds are collected here from EP0231671B1, “Gonatriene derivatives and process for preparing them” (MITSUBISHI KASEI CORPORATION, priority 1985, dated 1987).

For the experiment, the system named is female rats. The experiment in a line: Anti-gonadotropic activity: ovary weight after 14 days of oral administration, test group compared with control group. Type of experiment: in vivo. Further details: key: -: no effective; +: effective; ++: very effective. The following applies: suspended in 10 % ethanol-containing cotton seed oil, ovary weight vs control group. The procedure: Each compound obtained in Examples and suspended in a 10 % ethanol-containing cotton seed oil was orally administrated to female rats in a dose of 0.1, 1 or 10 mg/kg for 14 days. While, for the control group, only the cotton seed oil was orally administrated for the same period.
After the completion of the administration, the ovary of each rat was weighted. From the comparison of the weight in the test group with that in the control group, the anti-gonadotropic activity of the gonatriene compound of this invention was evaluated.

Take `C[C@]12C=CC3=C4CCC(=O)C=C4CC[C@H]3[C@@H]1CC[C@@]2(O)CCl` [Example 1, 17α-chloromethyl-17β-hydroxy-13β-methyl-gona-4.9.11-triene-3-one]: the anti-gonadotropic activity result reads like this: (0.1 mg/kg for 14 days) “-”; (10 mg/kg for 14 days) “++”.

For `C[C@]12C=CC3=C4CCC(=O)C=C4CC[C@H]3[C@@H]1CC[C@@]2(O)CC#N` [Example 2, 17α-cyanomethyl-17β-hydroxy-13β-methyl-gona-4,9,11-triene-3-one], the anti-gonadotropic activity entry (0.1 mg/kg for 14 days) is reported as “-”, the anti-gonadotropic activity result (1 mg/kg for 14 days) was “+” and the anti-gonadotropic activity entry (10 mg/kg for 14 days) was “++”.

As for `CC[C@]12C=CC3=C4CCC(=O)C=C4CC[C@H]3[C@@H]1CC[C@@]2(O)CC#N` [Example 3, 17α-cyanomethyl-17β-hydroxy-13β-ethyl-gona-4,9,11-triene-3-one], the anti-gonadotropic activity entry is on record as “-” (0.1 mg/kg for 14 days), “+” (1 mg/kg for 14 days) and “++” (10 mg/kg for 14 days).

`CC[C@]12C=CC3=C4CCC(=O)C=C4CC[C@H]3[C@@H]1CC[C@@]2(O)CCl` [Example 4, 17α-chloromethyl-17β-hydroxy-13β-ethyl-gona-4,9,11-triene-3-one]: the anti-gonadotropic activity entry runs as follows: (0.1 mg/kg for 14 days) “-”; (1 mg/kg for 14 days) “+”; (10 mg/kg for 14 days) “++”.

`CC[C@]12C=CC3=C4CCC(=O)C=C4CC[C@H]3[C@@H]1CC[C@@]2(O)COC` [Example 6, 17α-methoxymethyl-17β-hydroxy-13β-ethyl-gona-4,9,11-triene-3-one]: the anti-gonadotropic activity result (10 mg/kg for 14 days) is “++”.

Consider `CC[C@]12C=CC3=C4CCC(=O)C=C4CC[C@H]3[C@@H]1CC[C@@]2(O)CSC` [Example 7, 17α-methylthiomethyl-17β-hydroxy-13β-ethyl-aona-4.9.11-triene-3-one], for which the anti-gonadotropic activity entry by setting is: (0.1 mg/kg for 14 days) “-”; (10 mg/kg for 14 days) “++”.

Turning to `CC[C@]12C=CC3=C4CCC(=O)C=C4CC[C@H]3[C@@H]1CC[C@@]2(O)CSC#N` [Example 9, 17α-thiocyanatemethyl-17β-hydroxy-13βethyl-gona-4,9,11-triene-3-one], the anti-gonadotropic activity entry reads like this: (1 mg/kg for 14 days) “++”; (10 mg/kg for 14 days) “++”.
